Test results from US7799821B2, “Therapeutic compounds” (Allergan, Inc., priority 2004, dated 2010).

Assays:
[1] = target: T1, hTP (Homo sapiens, UniProt P21731); assay: FLIPR calcium signal, hTP; type: cell-based; details: FLIPR Ca2+ signal, HEK-293(EBNA); read-out: FUNCTIONAL EC50 HTP
T1 construct: expressed in transfected cells; host or cells: HEK-293(EBNA)
T1 sequence (P21731 1-343): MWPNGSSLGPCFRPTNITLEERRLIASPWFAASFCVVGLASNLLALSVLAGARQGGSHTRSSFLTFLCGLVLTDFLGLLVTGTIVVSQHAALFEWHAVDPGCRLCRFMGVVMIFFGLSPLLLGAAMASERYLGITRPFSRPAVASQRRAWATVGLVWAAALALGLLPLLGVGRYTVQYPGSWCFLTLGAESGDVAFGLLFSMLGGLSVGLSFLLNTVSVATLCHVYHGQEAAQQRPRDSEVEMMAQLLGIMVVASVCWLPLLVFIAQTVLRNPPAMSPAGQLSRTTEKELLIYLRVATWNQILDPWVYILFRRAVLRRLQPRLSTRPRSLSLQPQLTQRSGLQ
Protocol: (§1) HEK-293(EBNA) cells, stably expressing one type or subtype of recombinant human prostaglandin receptors (prostaglandin receptors expressed: hDP/Gqs5; hEP1; hEP2/Gqs5; hEP3A/Gqi5; hEP4/Gqs5; hFP; hIP; hTP), were cultured in 100 mm culture dishes in high-glucose DMEM medium containing 10% fetal bovine serum, 2 mM 1-glutamine, 250 μg/ml geneticin (G418) and 200 μg/ml hygromycin B as selection markers, and 100 units/ml penicillin G, 100 μg/ml streptomycin and 0.25 μg/ml amphotericin B. • (b) Calcium Signal Studies on the FLIPR™
(§2) Cells were seeded at a density of 5×10^4 cells per well in Biocoat® Poly-D-lysine-coated black-wall, clear-bottom 96-well plates (Becton-Dickinson) and allowed to attach overnight in an incubator at 37° C. Cells were then washed two times with HBSS-HEPES buffer (Hanks Balanced Salt Solution without bicarbonate and phenol red, 20 mM HEPES, pH 7.4) using a Denley Cellwash plate washer (Labsystems). After 45 minutes of dye-loading in the dark, using the calcium-sensitive dye Fluo-4 AM at a final concentration of 2 μM, plates were washed four times with HBSS-HEPES buffer to remove excess dye leaving 100 μl in each well. Plates were re-equilibrated to 37° C. for a few minutes.
(§3) Cells were excited with an Argon laser at 488 nm, and emission was measured through a 510-570 nm bandwidth emission filter (FLIPR™, Molecular Devices, Sunnyvale, Calif.). Drug solution was added in a 50 μl volume to each well to give the desired final concentration. The peak increase in fluorescence intensity was recorded for each well. On each plate, four wells each served as negative (HBSS-HEPES buffer) and positive controls (standard agonists: BW245C (hDP); PGE2 (hEP1; hEP2/Gqs5; hEP3A/Gqi5; hEP4/Gqs5); PGF2α (hFP); carbacyclin (hIP); U-46619 (hTP), depending on receptor). The peak fluorescence change in each drug-containing well was then expressed relative to the controls.
(§4) Compounds were tested in a high-throughput (HTS) or concentration-response (CoRe) format. In the HTS format, forty-four compounds per plate were examined in duplicates at a concentration of 10^−5 M. To generate concentration-response curves, four compounds per plate were tested in duplicates in a concentration range between 10^−5 and 10^−11 M. The duplicate values were averaged. In either, HTS or CoRe format each compound was tested on at least 3 separate plates using cells from different passages to give an n≧3.

[2] = target: T2, hEP2/Gqs5 (Homo sapiens, UniProt P43116); assay: FLIPR calcium signal, hEP2; type: cell-based; details: FLIPR Ca2+ signal, HEK-293(EBNA); read-out: FUNCTIONAL EC50 HEP2
T2 construct: expressed in transfected cells; host or cells: HEK-293(EBNA)
Procedure, shortened: (§5)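 HEK-293(EBNA) cells stably expressing each human prostanoid receptor (EP2 and EP3A coupled via Gqs5/Gqi5 chimeras) were loaded with Fluo-4 AM, and peak calcium fluorescence was measured on FLIPR at 37° C. Compounds were tested at 10^−5 M or from 10^−11 to 10^−5 M in duplicate, n≥3, with response expressed relative to buffer and standard agonist controls.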

[3] = target: T3, hEP1 (Homo sapiens, UniProt P34995); assay: FLIPR calcium signal, hEP1; type: cell-based; details: FLIPR Ca2+ signal, HEK-293(EBNA); read-out: FUNCTIONAL EC50 HEP1
T3 construct: expressed in transfected cells; host or cells: HEK-293(EBNA)
T3 sequence (P34995 1-402): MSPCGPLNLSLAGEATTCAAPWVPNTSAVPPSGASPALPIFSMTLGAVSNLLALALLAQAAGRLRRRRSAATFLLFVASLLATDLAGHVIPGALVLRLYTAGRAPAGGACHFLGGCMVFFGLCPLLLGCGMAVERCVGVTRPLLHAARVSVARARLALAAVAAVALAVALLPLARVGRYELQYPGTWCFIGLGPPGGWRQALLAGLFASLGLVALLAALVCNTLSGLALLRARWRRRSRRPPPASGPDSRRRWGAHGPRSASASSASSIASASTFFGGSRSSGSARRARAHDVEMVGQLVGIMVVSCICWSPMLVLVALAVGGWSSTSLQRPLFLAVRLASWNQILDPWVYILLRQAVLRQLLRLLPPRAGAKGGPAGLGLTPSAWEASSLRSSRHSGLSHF
Protocol: as §1, §2, §3, §4

[4] = target: T4, human EP2 receptors (Homo sapiens, UniProt P43116); assay: Competition radioligand binding ([3H]PGE2), EP2; details: read-out: BINDING IC50 HEP2
T4 construct: expressed in transfected cells; host or cells: HEK 293

[5] = test system: Beagle dogs; assay: Ocular surface hyperemia, dogs; type: in vivo; design: key: 0.5: <1 trace; 1 mild; 2: moderate; 3: severe; details: score
Protocol: Ocular surface hyperemia was visually assessed and scored according to a system typically used clinically.
Ocular surface hyperemia was evaluated at the same time points as intraocular pressure measurement. It should be noted that untreated dog eyes frequently have a pink/red tone. Thus, values of trace or even mild are not necessarily out of the normal range. Similar tests were used to determine ocular surface hyperemia on monkeys and rabbits.

[6] = test system: monkeys; assay: Intraocular pressure (IOP) in monkeys; type: in vivo
[7] = test system: Beagle dogs; assay: Intraocular pressure (IOP) in dogs, pneumatonometry; type: in vivo; details: topical
Protocol: (§6) Intraocular pressure studies in dogs involved pneumatonometry performed in conscious, Beagle dogs of both sexes (10-15 kg). The animals remained conscious throughout the study and were gently restrained by hand. Drugs were administered topically to one eye as a 25 μL volume drop, the other eye received 25 μL vehicle (0.1% (w/v) polysorbate 80; 10 mM TRIS) as a control. Proparacaine (0.1% w/v) was used for corneal anesthesia during tonometry. Intraocular pressure was determined just before drug administration and at 2, 4 and 6 hr thereafter on each day of the 5 day study. Drug was administered immediately after the first IOP reading.
as §6, with “(0.1%” for “(0.1% (w/v)”, “80:10” for “80; 10”, “(0.1%)” for “(0.1% w/v)”

[8] = target: T5, hIP (Homo sapiens, UniProt P43119); assay: FLIPR calcium signal, hIP; type: cell-based; details: FLIPR Ca2+ signal, HEK-293(EBNA); read-out: FUNCTIONAL EC50 HIP
T5 construct: expressed in transfected cells; host or cells: HEK-293(EBNA)
Protocol: as §1, §2, §3, §4

[9] = target: T6, hEP3A/Gqi5 (Homo sapiens, UniProt P43115); assay: FLIPR calcium signal, hEP3A; type: cell-based; details: FLIPR Ca2+ signal, HEK-293(EBNA); read-out: FUNCTIONAL EC50 HEP3A
T6 construct: expressed in transfected cells; host or cells: HEK-293(EBNA)
T6 sequence (P43115 1-390): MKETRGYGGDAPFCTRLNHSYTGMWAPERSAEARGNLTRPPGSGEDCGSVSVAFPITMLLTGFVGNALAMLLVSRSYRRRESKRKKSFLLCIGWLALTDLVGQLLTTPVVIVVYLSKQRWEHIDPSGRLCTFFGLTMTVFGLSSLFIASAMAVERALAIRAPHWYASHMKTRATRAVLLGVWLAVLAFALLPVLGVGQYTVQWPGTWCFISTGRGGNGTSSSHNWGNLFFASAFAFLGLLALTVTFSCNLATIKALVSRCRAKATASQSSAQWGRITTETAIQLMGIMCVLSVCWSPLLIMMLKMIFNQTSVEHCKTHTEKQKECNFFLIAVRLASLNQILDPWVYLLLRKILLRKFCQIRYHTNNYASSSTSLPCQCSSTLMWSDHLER
Procedure, shortened: as §5

[10] = target: T7, hEP4/Gqs5 (Homo sapiens, UniProt P35408); assay: FLIPR calcium signal, hEP4; type: cell-based; details: FLIPR Ca2+ signal, HEK-293(EBNA); read-out: FUNCTIONAL EC50 HEP4
T7 construct: expressed in transfected cells; host or cells: HEK-293(EBNA)
Procedure, shortened: as §5

[11] = target: T8, hDP/Gqs5 (Homo sapiens, UniProt Q13258); assay: FLIPR calcium signal, hDP; type: cell-based; details: FLIPR Ca2+ signal, HEK-293(EBNA); read-out: FUNCTIONAL EC50 HDP
T8 construct: expressed in transfected cells; host or cells: HEK-293(EBNA)
T8 sequence (Q13258 1-359): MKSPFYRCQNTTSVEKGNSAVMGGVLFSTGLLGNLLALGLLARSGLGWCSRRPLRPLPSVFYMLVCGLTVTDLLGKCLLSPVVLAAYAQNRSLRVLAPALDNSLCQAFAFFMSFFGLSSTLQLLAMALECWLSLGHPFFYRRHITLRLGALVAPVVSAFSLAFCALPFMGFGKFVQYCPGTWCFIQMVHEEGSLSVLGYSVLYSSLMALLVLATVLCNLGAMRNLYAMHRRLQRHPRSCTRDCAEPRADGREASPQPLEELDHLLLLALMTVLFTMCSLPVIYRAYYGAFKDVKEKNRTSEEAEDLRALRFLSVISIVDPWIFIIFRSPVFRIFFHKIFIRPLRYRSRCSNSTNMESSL
Protocol: as §1, §2, §3, §4

T2 sequence (P43116 whole entry): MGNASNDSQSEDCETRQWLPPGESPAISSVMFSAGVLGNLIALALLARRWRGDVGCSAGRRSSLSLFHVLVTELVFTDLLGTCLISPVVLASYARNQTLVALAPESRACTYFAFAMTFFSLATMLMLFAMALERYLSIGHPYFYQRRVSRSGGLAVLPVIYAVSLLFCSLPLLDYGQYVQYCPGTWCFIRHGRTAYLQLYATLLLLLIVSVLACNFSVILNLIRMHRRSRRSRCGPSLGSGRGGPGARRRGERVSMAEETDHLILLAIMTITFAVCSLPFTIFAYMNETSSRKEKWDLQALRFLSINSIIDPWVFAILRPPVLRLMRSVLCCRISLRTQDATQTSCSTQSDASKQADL
T5 sequence (P43119 whole entry): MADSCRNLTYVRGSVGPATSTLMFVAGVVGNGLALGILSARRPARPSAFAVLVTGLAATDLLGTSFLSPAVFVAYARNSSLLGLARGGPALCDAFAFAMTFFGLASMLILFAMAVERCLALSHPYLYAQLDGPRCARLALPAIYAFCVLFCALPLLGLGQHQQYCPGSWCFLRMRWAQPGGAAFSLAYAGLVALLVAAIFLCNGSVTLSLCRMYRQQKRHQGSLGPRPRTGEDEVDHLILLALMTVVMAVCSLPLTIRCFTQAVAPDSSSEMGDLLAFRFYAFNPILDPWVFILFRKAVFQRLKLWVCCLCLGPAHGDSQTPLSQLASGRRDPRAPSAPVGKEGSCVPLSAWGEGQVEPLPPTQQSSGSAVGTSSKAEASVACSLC
T7 sequence (P35408 whole entry): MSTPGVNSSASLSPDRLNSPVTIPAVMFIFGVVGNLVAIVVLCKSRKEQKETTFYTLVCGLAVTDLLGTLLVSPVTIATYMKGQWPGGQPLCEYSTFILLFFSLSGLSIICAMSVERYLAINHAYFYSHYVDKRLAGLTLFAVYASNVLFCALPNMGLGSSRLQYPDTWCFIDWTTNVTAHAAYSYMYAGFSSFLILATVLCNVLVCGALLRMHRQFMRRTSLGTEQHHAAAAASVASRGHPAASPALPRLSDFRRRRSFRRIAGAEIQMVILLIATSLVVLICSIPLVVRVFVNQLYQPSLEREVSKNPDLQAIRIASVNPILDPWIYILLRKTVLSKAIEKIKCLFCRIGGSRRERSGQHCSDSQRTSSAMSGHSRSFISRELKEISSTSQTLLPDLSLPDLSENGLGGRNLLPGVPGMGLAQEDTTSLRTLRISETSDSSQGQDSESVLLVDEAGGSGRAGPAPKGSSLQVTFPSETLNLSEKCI
T4 sequence (P43116 whole entry): as the sequence (P43116 whole entry) above

| SMILES | EC50 [1] [µM] | EC50 [2] [µM] | EC50 [3] [µM] | EC50 [9] [µM] | EC50 [11] [µM] | also measured |
| --- | --- | --- | --- | --- | --- | --- |
| Cc1ccc([C@H]2[C@H](O)CC(=O)[C@@H]2CCCCCCC(=O)O)cc1 | 0.094 | 3.13 | 1.87 |  |  |  |
| CC(C)(C)c1ccc([C@H]2[C@H](O)CC(=O)[C@@H]2C/C=C\CCCC(=O)O)cc1 |  | 1.71 | > 10 |  |  |  |
| O=C(O)CCCCCC[C@@H]1[C@@H](c2ccc3c(c2)CCC3)[C@H](O)C[C@H]1Cl | 0.2 | 0.818 | 0.221 |  |  | IC50 [4]: 6.25 µM |
| O=C(O)CCC/C=C\C[C@@H]1[C@@H](c2ccc3c(c2)CCC3O)[C@H](O)C[C@H]1Cl (stereo partly shown) |  |  |  |  |  | DOG Max. hyperemia ([5]; Conc. 0.30% g/100 mL): 1; MONKEY Max. ΔIOP (mm Hg) ([6]; Conc. 0.30% g/100 mL): 7 mm Hg; DOG Max. ΔIOP (mm Hg) ([7]; Conc. 0.30% g/100 mL): −7 mm Hg |
| CC(C)(CO)c1ccc([C@@H]2[C@@H](C/C=C\CCCC(=O)O)[C@H](Cl)C[C@H]2O)cc1 [drawing 243] |  |  |  |  |  | DOG Max. hyperemia ([5]; Conc. 0.30% g/100 mL): 0.9; DOG Max. ΔIOP (mm Hg) ([7]; Conc. 0.30% g/100 mL): −8 mm Hg |
| O=C(O)CCCCCC[C@H]1C(=O)C[C@@H](O)[C@@H]1c1ccc(C2(O)CCC2)cc1 |  | > 10 |  |  |  | EC50 [8]: > 10 µM |
| CC(C)(C)c1ccc([C@H]2[C@H](O)CC(=O)[C@@H]2CCCCCCC(=O)O)cc1 | 4.27 | 0.102 | > 10 | 3.39 |  | EC50 [8]: > 10 µM |
| CC(C)(C)c1ccc([C@@H]2[C@@H](C/C=C\CCCC(=O)O)[C@H](Cl)C[C@H]2O)cc1 | 1.27 | 0.118 | > 10 | 2.05 | > 10 | EC50 [10]: > 10 µM |
| CCCCCC(=O)c1ccc([C@@H]2[C@@H](C/C=C\CCCC(=O)O)[C@H](Cl)C[C@H]2O)cc1 |  |  |  |  |  | DOG Max. hyperemia ([5]; Conc. 0.10% (0.1%) g/100 mL): 2.0; MONKEY Max. ΔIOP (mm Hg) ([6]; Conc. 0.10% (0.1%) g/100 mL): 31 mm Hg |
| CCCC1(C(O)c2cccc([C@@H]3[C@@H](C/C=C\CCCC(=O)O)[C@H](Cl)C[C@H]3O)c2)CCC1 (stereo partly shown) | > 10 | 0.322 |  | 0.455 | > 10 |  |
| CC(C)OC(=O)CCC/C=C\C[C@@H]1[C@@H](c2ccc(C(O)C3CCCCC3)cc2)[C@H](O)C[C@H]1Cl (stereo partly shown) |  |  |  |  |  | DOG Max. hyperemia ([5]; Conc. 0.01% g/100 mL): 0.6; MONKEY Max. ΔIOP (mm Hg) ([6]; Conc. 0.01% g/100 mL): 5 mm Hg; DOG Max. ΔIOP (mm Hg) ([7]; Conc. 0.01% g/100 mL): −4 mm Hg |
| CCCC1(C(O)c2cccc([C@H]3[C@H](O)CC(=O)[C@@H]3CCCCCCC(=O)OC)c2)CCC1 (stereo partly shown) |  | > 10 |  | > 10 | > 10 | EC50 [10]: > 10 µM; EC50 [8]: > 10 µM |
| CC(C)(C)c1ccc([C@@H]2[C@@H](CCCCCCC(=O)O)[C@H](Cl)C[C@H]2O)cc1 [drawing 70] | > 10 | 0.264 | > 10 | > 10 | > 10 |  |
